Test results: patent publication US11998539B2, “Substituted aminoquinolones as DGKalpha inhibitors for immune activation” (Bayer Aktiengesellschaft, priority 2019, dated 2024)
One block for each compound: values may come before it.

Biological target: DGKα (Homo sapiens (Human), UniProt P23743)
Experiment: Human DGKα kinase activity inhibition assay (ADP-Glo)
Assay type: biochemical
Details: recombinant full-length human DGKα, 55 μM ATP, 7 μM 1,2-dioleoyl-sn-glycerol, read-out: IC50 values of examples in in vitro human DGKa kinase activity inhibition assays
Outline: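 Activity was measured as ADP production, detected by luciferase luminescence after removal of unused ATP. The enzyme was baculovirus-expressed full-length human DGKα with a C-terminal FLAG tag. The substrate was 1,2-dioleoyl-sn-glycerol in detergent micelles, and compounds came from 100× DMSO solutions.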

Sequence of DGKα (P23743 other isoform, or with tags, fused parts or gaps): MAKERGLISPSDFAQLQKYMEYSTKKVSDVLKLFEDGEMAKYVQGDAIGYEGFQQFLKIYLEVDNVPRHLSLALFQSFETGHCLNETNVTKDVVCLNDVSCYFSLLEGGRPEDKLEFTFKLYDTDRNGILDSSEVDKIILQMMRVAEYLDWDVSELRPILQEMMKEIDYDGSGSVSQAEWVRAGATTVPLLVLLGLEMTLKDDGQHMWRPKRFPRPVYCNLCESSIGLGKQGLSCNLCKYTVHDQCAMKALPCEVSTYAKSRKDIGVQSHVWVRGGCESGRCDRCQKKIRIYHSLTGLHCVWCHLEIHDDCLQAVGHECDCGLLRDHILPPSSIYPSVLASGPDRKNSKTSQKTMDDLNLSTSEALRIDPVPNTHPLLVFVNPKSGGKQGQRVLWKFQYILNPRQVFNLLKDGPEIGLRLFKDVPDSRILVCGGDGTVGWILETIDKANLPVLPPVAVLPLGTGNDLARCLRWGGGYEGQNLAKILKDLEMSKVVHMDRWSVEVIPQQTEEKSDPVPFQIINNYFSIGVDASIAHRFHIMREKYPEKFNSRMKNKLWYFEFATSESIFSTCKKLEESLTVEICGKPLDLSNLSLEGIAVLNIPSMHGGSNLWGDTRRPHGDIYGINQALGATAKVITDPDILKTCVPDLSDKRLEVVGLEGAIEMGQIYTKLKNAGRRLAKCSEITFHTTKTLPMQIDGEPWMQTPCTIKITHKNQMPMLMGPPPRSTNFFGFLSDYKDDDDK

SMILES: Cn1c(=O)c(C#N)c(N2CCC(c3nc4cc(Cl)ccc4o3)CC2)c2cccc(Br)c21 [Example 159, 8-bromo-4-[4-(5-chloro-1,3-benzoxazol-2-yl)piperidin-1-yl]-1-methyl-2-oxo-1,2-dihydroquinoline-3-carbonitrile]
IC50: 383 nM

SMILES: Cn1c(=O)c(C#N)c(N2CCC(c3nc4cc(F)c(F)cc4o3)CC2)c2cccc(Br)c21 [Example 160, 8-bromo-4-[4-(5,6-difluoro-1,3-benzoxazol-2-yl)piperidin-1-yl]-1-methyl-2-oxo-1,2-dihydroquinoline-3-carbonitrile]
IC50: 544 nM

SMILES: Cn1c(=O)c(C#N)c(N2CCC(c3nc4ccccc4o3)CC2)c2cccc(Br)c21 [Example 161, 4-[4-(1,3-benzoxazol-2-yl)piperidin-1-yl]-8-bromo-1-methyl-2-oxo-1,2-dihydroquinoline-3-carbonitrile]
IC50: 1100 nM

SMILES: Cn1c(=O)c(C#N)c(N2CCC(c3nc4ccccc4o3)CC2)c2cccc(Cl)c21 [Example 162, 4-[4-(1,3-benzoxazol-2-yl)piperidin-1-yl]-8-chloro-1-methyl-2-oxo-1,2-dihydroquinoline-3-carbonitrile]
IC50: 134 nM

IC50: 146 nM
SMILES: Cc1ccc2oc(C3(C)CCN(c4c(C#N)c(=O)n(C)c5c(C#N)cccc45)CC3)nc2c1 [Example 163, 1-methyl-4-[4-methyl-4-(5-methyl-1,3-benzoxazol-2-yl)piperidin-1-yl]-2-oxo-1,2-dihydroquinoline-3,8-dicarbonitrile]

SMILES: Cc1ccc2oc(C3(C)CCN(c4c(C#N)c(=O)n(C)c5c(S(C)(=O)=O)cccc45)CC3)nc2c1 [Example 164, 8-(methanesulfonyl)-1-methyl-4-[4-methyl-4-(5-methyl-1,3-benzoxazol-2-yl)piperidin-1-yl]-2-oxo-1,2-dihydroquinoline-3-carbonitrile]
IC50: 1.1 nM

SMILES: Cc1ccc2c(c1)c(N1CCC(c3nc4ccccc4o3)CC1)c(C#N)c(=O)n2C [Example 165, 4-[4-(1,3-benzoxazol-2-yl)piperidin-1-yl]-1,6-dimethyl-2-oxo-1,2-dihydroquinoline-3-carbonitrile]
IC50: 2.6 nM

SMILES: Cc1ccc2oc(C3CCN(c4c(C#N)c(=O)n(C)c5ccc(C)cc45)CC3)nc2c1 [Example 166, 1,6-dimethyl-4-[4-(5-methyl-1,3-benzoxazol-2-yl)piperidin-1-yl]-2-oxo-1,2-dihydroquinoline-3-carbonitrile]
IC50: 2.2 nM

SMILES: COc1ccc(C2CCN(c3c(C#N)c(=O)n(C)c4ccc(Br)cc34)CC2)cc1 [Example 167, 6-bromo-4-[4-(4-methoxyphenyl)piperidin-1-yl]-1-methyl-2-oxo-1,2-dihydroquinoline-3-carbonitrile]
IC50: 3.2 nM

SMILES: Cn1c(=O)c(C#N)c(N2CCC(c3nc4ccccc4o3)CC2)c2cc(Br)ccc21 [Example 168, 4-[4-(1,3-benzoxazol-2-yl)piperidin-1-yl]-6-bromo-1-methyl-2-oxo-1,2-dihydroquinoline-3-carbonitrile]
IC50: 0.5 nM

SMILES: Cn1c(=O)c(C#N)c(N2CCC(c3nc4ccccc4s3)CC2)c2cc(Br)ccc21 [Example 169, 4-[4-(1,3-benzothiazol-2-yl)piperidin-1-yl]-6-bromo-1-methyl-2-oxo-1,2-dihydroquinoline-3-carbonitrile]
IC50: 0.6 nM

SMILES: CC(C)c1ccc2oc(C3CCN(c4c(C#N)c(=O)n(C)c5ccc(Br)cc45)CC3)nc2c1 [Example 170, 6-bromo-1-methyl-2-oxo-4-{4-[5-(propan-2-yl)-1,3-benzoxazol-2-yl]piperidin-1-yl}-1,2-dihydroquinoline-3-carbonitrile]
IC50: 7.2 nM

SMILES: Cc1ccc2oc(C3(C)CCN(c4c(C#N)c(=O)n(C)c5ccc(Br)cc45)CC3)nc2c1 [Example 171, 6-bromo-1-methyl-4-[4-methyl-4-(5-methyl-1,3-benzoxazol-2-yl)piperidin-1-yl]-2-oxo-1,2-dihydroquinoline-3-carbonitrile]
IC50: 1.5 nM

SMILES: COc1ccc(C2CCN(c3c(C#N)c(=O)n(C)c4ccc(C#N)cc34)CC2)cc1 [Example 173, 4-[4-(4-methoxyphenyl)piperidin-1-yl]-1-methyl-2-oxo-1,2-dihydroquinoline-3,6-dicarbonitrile]
IC50: 12 nM

SMILES: Cc1ccc2c(c1)c(N1CCC(c3nc4ccccc4s3)CC1)c(C#N)c(=O)n2C [Example 174, 4-[4-(1,3-benzothiazol-2-yl)piperidin-1-yl]-1,6-dimethyl-2-oxo-1,2-dihydroquinoline-3-carbonitrile]
IC50: 1.7 nM

SMILES: Cn1c(=O)c(C#N)c(N2CCC(c3nc4ccccc4o3)CC2)c2cc(C#N)ccc21 [Example 175, 4-[4-(1,3-benzoxazol-2-yl)piperidin-1-yl]-1-methyl-2-oxo-1,2-dihydroquinoline-3,6-dicarbonitrile]
IC50: 4.2 nM

SMILES: Cn1c(=O)c(C#N)c(N2CCC(c3nc4ccccc4s3)CC2)c2cc(C#N)ccc21 [Example 176, 4-[4-(1,3-benzothiazol-2-yl)piperidin-1-yl]-1-methyl-2-oxo-1,2-dihydroquinoline-3,6-dicarbonitrile]
IC50: 3 nM

SMILES: COc1ccc(C2CCN(c3c(C#N)c(=O)n(C)c4ccc(S(C)(=O)=O)cc34)CC2)cc1 [Example 178, 6-(methanesulfonyl)-4-[4-(4-methoxyphenyl)piperidin-1-yl]-1-methyl-2-oxo-1,2-dihydroquinoline-3-carbonitrile]
IC50: 298 nM

IC50: 1510 nM
SMILES: COc1ccc(C2CCN(c3c(C#N)c(=O)n(C)c4ccc(C5=CCOCC5)cc34)CC2)cc1 [Example 180, 6-(3,6-dihydro-2H-pyran-4-yl)-4-[4-(4-methoxyphenyl)piperidin-1-yl]-1-methyl-2-oxo-1,2-dihydroquinoline-3-carbonitrile]

SMILES: COc1ccc(C2CCN(c3c(C#N)c(=O)n(C)c4ccc(-c5ccccc5)cc34)CC2)cc1 [Example 181, 4-[4-(4-methoxyphenyl)piperidin-1-yl]-1-methyl-2-oxo-6-phenyl-1,2-dihydroquinoline-3-carbonitrile]
IC50: 150 nM

SMILES: Cc1ccc2oc(C3(C)CCN(c4c(C#N)c(=O)n(C)c5ccc(S(C)(=O)=O)cc45)CC3)nc2c1 [Example 182, 6-(methanesulfonyl)-1-methyl-4-[4-methyl-4-(5-methyl-1,3-benzoxazol-2-yl)piperidin-1-yl]-2-oxo-1,2-dihydroquinoline-3-carbonitrile]
IC50: 47 nM

SMILES: Cc1ccc2c(c1)c(N1CCC(c3nc4ccc(Cl)cc4o3)CC1)c(C#N)c(=O)n2C [Example 183, 4-[4-(6-chloro-1,3-benzoxazol-2-yl)piperidin-1-yl]-1,6-dimethyl-2-oxo-1,2-dihydroquinoline-3-carbonitrile]
IC50: 1.5 nM

SMILES: Cc1ccc2nc(C3CCN(c4c(C#N)c(=O)n(C)c5ccc(C)cc45)CC3)oc2c1 [Example 184, 1,6-dimethyl-4-[4-(6-methyl-1,3-benzoxazol-2-yl)piperidin-1-yl]-2-oxo-1,2-dihydroquinoline-3-carbonitrile]
IC50: 1.5 nM

SMILES: Cc1ccc2c(c1)c(N1CCC(c3nc4cc(Cl)ccc4o3)CC1)c(C#N)c(=O)n2C [Example 185, 4-[4-(5-chloro-1,3-benzoxazol-2-yl)piperidin-1-yl]-1,6-dimethyl-2-oxo-1,2-dihydroquinoline-3-carbonitrile]
IC50: 2.9 nM

SMILES: Cc1ccc2c(c1)c(N1CCC(c3nc4cc(C(C)C)ccc4o3)CC1)c(C#N)c(=O)n2C [Example 186, 1,6-dimethyl-2-oxo-4-{4-[5-(propan-2-yl)-1,3-benzoxazol-2-yl]piperidin-1-yl}-1,2-dihydroquinoline-3-carbonitrile]
IC50: 9.1 nM

SMILES: Cc1ccc2oc(C3(C)CCN(c4c(C#N)c(=O)n(C)c5ccc(C)cc45)CC3)nc2c1 [Example 187, 1,6-dimethyl-4-[4-methyl-4-(5-methyl-1,3-benzoxazol-2-yl)piperidin-1-yl]-2-oxo-1,2-dihydroquinoline-3-carbonitrile]
IC50: 2 nM

SMILES: Cc1ccc2nc(C3(C)CCN(c4c(C#N)c(=O)n(C)c5ccc(C)cc45)CC3)oc2c1 [Example 188, 1,6-dimethyl-4-[4-methyl-4-(6-methyl-1,3-benzoxazol-2-yl)piperidin-1-yl]-2-oxo-1,2-dihydroquinoline-3-carbonitrile]
IC50: 2.6 nM

SMILES: Cc1ccc2c(c1)c(N1CCC(C)(c3nc4cc(C(C)C)ccc4o3)CC1)c(C#N)c(=O)n2C [Example 189, 1,6-dimethyl-4-{4-methyl-4-[5-(propan-2-yl)-1,3-benzoxazol-2-yl]piperidin-1-yl}-2-oxo-1,2-dihydroquinoline-3-carbonitrile]
IC50: 15 nM

SMILES: COc1ccc2c(c1)c(N1CCC(c3nc4ccc(C)cc4o3)CC1)c(C#N)c(=O)n2C [Example 190, 6-methoxy-1-methyl-4-[4-(6-methyl-1,3-benzoxazol-2-yl)piperidin-1-yl]-2-oxo-1,2-dihydroquinoline-3-carbonitrile]
IC50: 5.7 nM

SMILES: COc1ccc2c(c1)c(N1CCC(C)(c3nc4ccc(C)cc4o3)CC1)c(C#N)c(=O)n2C [Example 191, 6-methoxy-1-methyl-4-[4-methyl-4-(6-methyl-1,3-benzoxazol-2-yl)piperidin-1-yl]-2-oxo-1,2-dihydroquinoline-3-carbonitrile]
IC50: 7 nM

SMILES: Cc1ccc2nc(C3(C)CCN(c4c(C#N)c(=O)n(C)c5ccc(Cl)cc45)CC3)oc2c1 [Example 192, 6-chloro-1-methyl-4-[4-methyl-4-(6-methyl-1,3-benzoxazol-2-yl)piperidin-1-yl]-2-oxo-1,2-dihydroquinoline-3-carbonitrile]
IC50: 1360 nM

IC50: 2.4 nM
SMILES: Cc1ccc2c(c1)c(N1CCC(c3nc4ccccc4o3)CC1)c(C(N)=O)c(=O)n2C [Example 193, 4-[4-(1,3-benzoxazol-2-yl)piperidin-1-yl]-1,6-dimethyl-2-oxo-1,2-dihydroquinoline-3-carboxamide]

SMILES: Cc1ccc2oc(C3CCN(c4c(C(N)=O)c(=O)n(C)c5ccc(C)cc45)CC3)nc2c1 [Example 194, 1,6-dimethyl-4-[4-(5-methyl-1,3-benzoxazol-2-yl)piperidin-1-yl]-2-oxo-1,2-dihydroquinoline-3-carboxamide]
IC50: 2.2 nM
